Measurements as given in patent US12383653B2, “Neutral multidomain peptide hydrogels and uses thereof” (William Marsh Rice University, priority 2018, dated 2025).
Entries after “also recorded” stand apart in the source; their conditions may differ. Where a SMILES comes first, the peptide text is derived from it. [ ]: non-standard residue; d: D form. Hyp = O=C(O)[C@@H]1C[C@@H](O)CN1

Key:
Assay type in all cases: physicochemical
[1] = Solubility of peptides in water
[2] = Secondary structure estimation from circular dichroism in TFE, least square linear method; conditions: TFE at 25° C., 1 wt.%
Method: Circular Dichroism (CD) spectroscopy. For secondary structure characterization, peptide solutions of 1% by weight (molar concentration is included in Table 2) were prepared in 2,2,2-trifluoroethanol (TFE, Sigma Aldrich, St. Louis, MO). CD spectra acquisition was performed in a CD Jasco J-810 spectropolarimeter (Jasco Inc., Easton, MD) using a 0.01 mm cuvette. Data were collected at room temperature from 180 to 250 nm at a speed of 50 nm/min, with a 0.1 nm data pitch and the spectra were averaged over 5 scans. To study the hydrogelation of O5, 1% by weight peptide solutions were made in 149 mM sucrose solution in 0.5× Hank's Balanced Salt Solution (HBSS, Life Technologies) and analyzed as previously described.
To estimate the secondary structure of O peptide series, data fitting using the least square linear method was performed in MATLAB (Mathworks, Natick, MA). (Hyp)6, O1(SL)6O1 and K2(SL)6K2 were used as basis spectra for polyproline type II, β-sheet and α-helix, respectively (FIG. 7).

[3] = Hydrogel formation (inverted-vial test, pH, ionic strength, buffers); conditions: for hydrogel formation at acidic, neutral and basic pH: 1% by weight, pH adjusted with HCl or NaOH, inverted-vial test / CD
Method: Hydrogel Formation. Peptide solutions of O5 were prepared at 1% by weight (4.2 mM) in 149 mM sucrose and 0.5×HBSS. This buffer system was chosen to be consistent with prior MDP experiments and find optimum gelling conditions for future in vivo and in vitro work. Peptide solutions were sonicated using a Microson Ultrasonic Cell Disruptor with a 2 mm microprobe. The instrument frequency was 22.5 kHz and a power output up to 10 watts (RMS) was used. Solutions were sonicated at room temperature for 1 or 10 cycles, where each cycle consisted of 10 pulses and 1 min relaxation time between cycles. For the study of hydrogelation of O5, K2 and E2 at different pH values and ionic strength, 1% by weight peptide solutions were prepared in deionized water, PBS, or HBSS. pH was adjusted using HCl or NaOH 0.1 M solutions.

Molecule | solubility [1] [µg/mL] | % PPII [2] [%] | % α-helix [2] [%] | % β-sheet [2] [%] | Predominant Structure [2] | state of the peptide at 10 mg/mL ([3]; 10 mg/mL) | hydrogelation in cell culture media ([3]; 1% by weight in 149 mM sucrose and 0.5×HBSS, ultrasonication) | hydrogel formation at acidic, neutral and basic pH [3] | hydrogel formation at acidic, neutral and basic pH ([3]; listed as E2(SL)6E2)
CC(=O)N1C[C@H](O)C[C@H]1C(=O)N[C@@H](CO)C(=O)N[C@@H](CC(C)C)C(=O)N[C@@H](CO)C(=O)N[C@@H](CC(C)C)C(=O)N[C@@H](CO)C(=O)N[C@@H](CC(C)C)C(=O)N[C@@H](CO)C(=O)N[C@@H](CC(C)C)C(=O)N[C@@H](CO)C(=O)N[C@@H](CC(C)C)C(=O)N[C@@H](CO)C(=O)N[C@@H](CC(C)C)C(=O)N1C[C@H](O)C[C@H]1C(N)=O [Peptide O1, Ac-OSLSLSLSLSLSLO-CONH2] (Ac-[Hyp]SLSLSLSLSLSL[Hyp]-NH2) | < 500 | 0 | 0 | 100 | β-sheet | – | – | – | –
CC(=O)N1C[C@H](O)C[C@H]1C(=O)N1C[C@H](O)C[C@H]1C(=O)N[C@@H](CO)C(=O)N[C@@H](CC(C)C)C(=O)N[C@@H](CO)C(=O)N[C@@H](CC(C)C)C(=O)N[C@@H](CO)C(=O)N[C@@H](CC(C)C)C(=O)N[C@@H](CO)C(=O)N[C@@H](CC(C)C)C(=O)N[C@@H](CO)C(=O)N[C@@H](CC(C)C)C(=O)N[C@@H](CO)C(=O)N[C@@H](CC(C)C)C(=O)N1C[C@H](O)C[C@H]1C(=O)N1C[C@H](O)C[C@H]1C(N)=O [Peptide O2, Ac-OOSLSLSLSLSLSLOO-CONH2] (Ac-[Hyp][Hyp]SLSLSLSLSLSL[Hyp][Hyp]-NH2) | < 500 | 29.3 | 41.9 | 28.8 | α-helix | – | – | – | –
CC(=O)N1C[C@H](O)C[C@H]1C(=O)N1C[C@H](O)C[C@H]1C(=O)N1C[C@H](O)C[C@H]1C(=O)N[C@@H](CO)C(=O)N[C@@H](CC(C)C)C(=O)N[C@@H](CO)C(=O)N[C@@H](CC(C)C)C(=O)N[C@@H](CO)C(=O)N[C@@H](CC(C)C)C(=O)N[C@@H](CO)C(=O)N[C@@H](CC(C)C)C(=O)N[C@@H](CO)C(=O)N[C@@H](CC(C)C)C(=O)N[C@@H](CO)C(=O)N[C@@H](CC(C)C)C(=O)N1C[C@H](O)C[C@H]1C(=O)N1C[C@H](O)C[C@H]1C(=O)N1C[C@H](O)C[C@H]1C(N)=O [Peptide O3, Ac-OOOSLSLSLSLSLSLOOO-CONH2] (Ac-[Hyp][Hyp][Hyp]SLSLSLSLSLSL[Hyp][Hyp][Hyp]-NH2) | < 500 | 38.4 | 36.4 | 25.2 | PPII/α-helix | – | – | – | –
CC(=O)N1C[C@H](O)C[C@H]1C(=O)N1C[C@H](O)C[C@H]1C(=O)N1C[C@H](O)C[C@H]1C(=O)N1C[C@H](O)C[C@H]1C(=O)N[C@@H](CO)C(=O)N[C@@H](CC(C)C)C(=O)N[C@@H](CO)C(=O)N[C@@H](CC(C)C)C(=O)N[C@@H](CO)C(=O)N[C@@H](CC(C)C)C(=O)N[C@@H](CO)C(=O)N[C@@H](CC(C)C)C(=O)N[C@@H](CO)C(=O)N[C@@H](CC(C)C)C(=O)N[C@@H](CO)C(=O)N[C@@H](CC(C)C)C(=O)N1C[C@H](O)C[C@H]1C(=O)N1C[C@H](O)C[C@H]1C(=O)N1C[C@H](O)C[C@H]1C(=O)N1C[C@H](O)C[C@H]1C(N)=O [Peptide O4, Ac-OOOOSLSLSLSLSLSLOOOO-CONH2] (Ac-[Hyp][Hyp][Hyp][Hyp]SLSLSLSLSLSL[Hyp][Hyp][Hyp][Hyp]-NH2) | < 500 | 41.8 | 41.2 | 17 | PPII/α-helix | – | – | – | –
CC(=O)N1C[C@H](O)C[C@H]1C(=O)N1C[C@H](O)C[C@H]1C(=O)N1C[C@H](O)C[C@H]1C(=O)N1C[C@H](O)C[C@H]1C(=O)N1C[C@H](O)C[C@H]1C(=O)N1C[C@H](O)C[C@H]1C(=O)N[C@@H](CO)C(=O)N[C@@H](CC(C)C)C(=O)N[C@@H](CO)C(=O)N[C@@H](CC(C)C)C(=O)N[C@@H](CO)C(=O)N[C@@H](CC(C)C)C(=O)N[C@@H](CO)C(=O)N[C@@H](CC(C)C)C(=O)N[C@@H](CO)C(=O)N[C@@H](CC(C)C)C(=O)N[C@@H](CO)C(=O)N[C@@H](CC(C)C)C(=O)N1C[C@H](O)C[C@H]1C(=O)N1C[C@H](O)C[C@H]1C(=O)N1C[C@H](O)C[C@H]1C(=O)N1C[C@H](O)C[C@H]1C(=O)N1C[C@H](O)C[C@H]1C(=O)N1C[C@H](O)C[C@H]1C(N)=O [Peptide O6, Ac-OOOOOOSLSLSLSLSLSLOOOOOO-CONH2] (Ac-[Hyp][Hyp][Hyp][Hyp][Hyp][Hyp]SLSLSLSLSLSL[Hyp][Hyp][Hyp][Hyp][Hyp][Hyp]-NH2) | – | 48.5 | 40.2 | 11.4 | PPII | viscous solution | dissolves to form a viscous solution | – | –
Ac-EESLSLSLSLSLSLEE-NH2 [Peptide E2, Ac-EESLSLSLSLSLSLEE-CONH2, reference compound] | – | – | – | – | – | – | – | dependent on pH; also recorded: forms a gel at acidic pH and undergoes phase separation | gels only forming at neutral pH or at elevated ionic strength
